Values of other authors, collected in patent US20250295106A1, “HERBICIDAL COMPOSITION” (NOURYON CHEMICALS INTERNATIONAL B.V., priority 2024, published 2025).

Conditions: acid form, at 25° C.

For `O=C(O)CNCP(=O)(O)O` [glyphosate, N-phosphonomethylglycine], which solubility in water is on record?
Its solubility in water is 1.16 % by weight.
